Here are results for three compounds from patent US11548885B2, “NLRX1 ligands” (Landos Biopharma, Inc., priority 2020, dated 2023).

One test deals with CD4+ T cells. Briefly: Immunological screening in vitro in CD4+ T cells (flow cytometry of TNFα+ and IFNγ+ cells). Type of test: cell-based, C57BL/6 mice. The note with it: 50 nanomolar, 24 h; for production of TNFα / TNF+ CD4+ T cells: anti-CD3/CD28, PMA and ionomycin last 6 h. An excerpt: Cell culture. Spleens were excised from C57BL/6 mice. Spleens were crushed between the frosted ends of microscope slides and filtered to provide a cellular suspension. Red blood cells were lysed through hypotonic lysis. Remaining cells were washed and filtered. CD4+ T cells were enriched within the suspension using magnetic sorting based negative selection. Cells were collected and plated within 96 well plates coated with anti-CD3/CD28 and cultured in the presence of NX-64-2, NX-64-3, NX-64-4, NX-64-5, or NX-64-9 at 0 or 50 nanomolar for 24 h. During the last 6 h of culture, cells were stimulated with phorbol 12-myristate-13-acetate (PMA) and ionomycin.
Immunological analysis. Cells were collected from 96 well plates and stained with a cocktail of antibodies for immunophenotyping by flow cytometry. Culture supernatant was collected and assayed for cytokine concentrations by cytometric bead array. Data was captured on a BD FACS Celesta and analyzed using FACSDiva.

In another test the test system is OVA-induced model. In words: OVA-induced model of experimental asthma. It counts as in vivo, C57BL6 mice. The note with it: oral 20 mg/kg daily days 14-17, day 18, flow cytometry. The method, then: OVA-induced model. C57BL6 mice were immunized with 10 μg of ovalbumin (OVA) in aluminum hydroxide gel by intraperitoneal injection on day 0 and 7 of the experiment. Mice were then exposed to OVA (8% w/v) by aerosolization for 25 minutes daily between days 14 and 17. Treatment with NX-64-3 (20 mg/kg) or vehicle control occurred daily between days 14 and 17 by oral gavage. Dosage was calculated based off mean body weights. Immunological analysis. Lungs were collected on day 18. Lung tissue was minced and digested in RPMI supplemented with FBS, HEPES, and calcium chloride containing 300 U/mL collagenase and 50 U/mL DNase for 45 minutes at 37° C. After filtration, red blood cells were lysed. Cells were labeled with mixtures of extracellular (CD45, CD3, CD4, CD8, MHCII, CD11b, CD11c, SiglecF, Ly6C) and intracellular (IL10) antibodies in a sequential live staining in 96-well plates in preparation for flow cytometry. Data was captured on a BD FACS Celesta and analyzed using FACSDiva.

For the next test, the system named is mice challenged with DSS. In words: DSS model of colitis (acute model of IBD). It counts as in vivo. The note with it: oral 20 mg/kg once daily. The protocol: DSS model. Mice were given DSS in drinking water for seven days to induce disruption of the epithelial layer. At project initiation, mice were 8 weeks of age and began dosing 24 hours after being placed on DSS. Mice were weighed and scored daily for symptoms of disease (diarrhea, rectal bleeding, rectal inflammation, overall behavior). NX-64-3 was prepared within a 0.5% methylcellulose (12-15 cP) solution. Dosage used was 20 mg/kg delivered once daily. Dosage was calculated based off mean body weights for each gender. Oral dosage was delivered by orogastric gavage of dosage in 0.2 mL volume. Flow Cytometry. Colons were collected into RPMI/FBS buffer containing collagenase (300 U/mL) and DNase (50 U/mL) for digestion. Tissues were digested for 60 minutes under stirring at 37° C. Resultant cellular suspensions were filtered through 100 μm strainers, centrifuged (300×g, 8 min), and washed in fresh RPMI. Following filtration of the resulting single cell suspensions, immune cells were purified by Percoll gradient of cell-containing 40% Percoll overlayed onto 70% Percoll solution. After centrifugation, interphase was collected and washed to obtain enriched colonic lamina propria cell fractions. Cells were labeled with mixtures of extracellular (CD45, CD3, CD4, CD8, CD19, NK1.1, F4/80, CD11b, Gr1) antibodies in a sequential live staining in 96-well plates. […]

Test [1] has as its system mice challenged with MOG emulsion. In words: MOG35-55 induced experimental autoimmune encephalomyelitis model. The note with it: oral 20 mg/kg daily. Type of test: in vivo, C57BL6 mice.
Where [2] appears, read: day 18, RNA normalized to beta-actin.

As for `O=c1nc(Cc2nc(C3=CCCCO3)no2)[nH]c2ccc(-c3ccc(O)nc3)cc12` [NX-64-3, 2-((3-(3,4-dihydro-2H-pyran-6-yl)-1,2,4-oxadiazol-5-yl)methyl)-6-(6-hydroxypyridin-3-yl)quinazolin-4(1H)-one], the “production of TNFα / TNF+ CD4+ T cells” value in the test on CD4+ T cells is “significant reduction”. The “production of IFNγ / IFNγ+ CD4+ T cells, in words” value with CD4+ T cells (relative to vehicle control) was “greatest magnitude of response”. Further, in the test with OVA-induced model, the “percentage of IL10+CD4+ T cells within the lung” value is given as “increased” and the “percentage of eosinophils within the lung” value is “reduced”. For the same compound, the “severity of macroscopic lesions (colon)” value with mice challenged with DSS (7 days of DSS) is on record as “decreased”. Also, in the test on mice challenged with DSS (day 7, flow cytometry), the “presence of neutrophils in the colonic lamina propria” value is given as “decreased”. Further, the “recovery from neurological deficiencies” value in test [1] was “accelerated”. Moreover, in test [1] (setting [2]), the “expression of II1b in spinal cord” value is on record as “reduced” and the “expression of Tnf in spinal cord” value is given as “reduced”. Also, the disease activity index result in test [1] (scored 0-4 daily) is listed as “reduced”.
As for `Cn1cc(-c2ccc3[nH]c(Cc4nc(C5=CCCCO5)no4)nc(=O)c3c2)cn1` [NX-64-4, 2-((3-(3,4-dihydro-2H-pyran-6-yl)-1,2,4-oxadiazol-5-yl)methyl)-6-(1-methyl-1H-pyrazol-4-yl)quinazolin-4(1H)-one], the “production of TNFα / TNF+ CD4+ T cells” value with CD4+ T cells was “significant reduction”.
Still for that read-out and setting: for `Cn1cc(-c2ccc3[nH]c(Cc4nc(-c5cc(=O)cc[nH]5)no4)nc(=O)c3c2)cn1` [NX-64-9, 2-((3-(4-oxo-1H-pyridin-2-yl)-1,2,4-oxadiazol-5-yl)methyl)-6-(1-methyl-1H-pyrazol-4-yl)quinazolin-4(1H)-one] the value was “significant reduction”.
